Measured values reported in US7799753B2, “Bisubstrate inhibitors of protein tyrosine kinases as therapeutic agents” (Board of Governers for Higher Education, priority 2004, dated 2010).
Each block holds one compound with its values, some of them ahead of it. Numbered stars: 1 amine (or outer) side, 2 acyl side, 3 side chain; on linkers, the order of the positions; unused ones are H or OH. Square brackets hold non-standard residues; d marks the D form. Peptide text beside a SMILES is read from it. * marks the point of attachment. X2 = CS(=O)(=O)Nc1ccc(C[C@H](N[*:1])C(=O)[*:2])cc1; Phe(4-NH2) = Nc1ccc(C[C@H](N)C(=O)O)cc1; X1 = Nc1ncnc2c1c(-c1ccccc1)nn2CC(=O)*

Columns and labels:
Src [1] = target: T1, Src (Homo sapiens, UniProt P12931); assay: Steady-state kinetic radioactive assay with Src (polyE4Y, [γ-32P]ATP), ATP-phosphopeptide conjugates; format: biochemical
T1 sequence (P12931 whole entry, species assumed): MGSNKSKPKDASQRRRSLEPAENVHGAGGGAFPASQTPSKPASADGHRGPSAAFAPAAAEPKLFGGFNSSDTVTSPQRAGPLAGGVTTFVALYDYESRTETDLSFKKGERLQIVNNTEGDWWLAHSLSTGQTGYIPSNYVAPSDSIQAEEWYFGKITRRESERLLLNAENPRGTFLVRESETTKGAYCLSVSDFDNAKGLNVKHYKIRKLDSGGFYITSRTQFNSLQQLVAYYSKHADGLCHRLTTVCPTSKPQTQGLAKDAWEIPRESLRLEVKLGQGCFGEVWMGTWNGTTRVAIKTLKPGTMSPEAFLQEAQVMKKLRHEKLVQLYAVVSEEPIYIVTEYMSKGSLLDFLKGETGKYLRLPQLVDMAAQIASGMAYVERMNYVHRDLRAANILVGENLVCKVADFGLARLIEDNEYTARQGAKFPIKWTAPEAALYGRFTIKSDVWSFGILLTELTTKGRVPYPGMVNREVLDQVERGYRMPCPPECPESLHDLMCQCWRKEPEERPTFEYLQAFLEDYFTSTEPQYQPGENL
Description: Steady-State Kinetic Assays.
Artificial substrate polyE4Y (average MW: 35 kD) was used for routine kinase activity. The kinase activity of PTKs was first determined using a standard radiometric PTK activity assay. This assay contains polyE4Y as the phosphate accepting substrate, [γ-^32P]-ATP, and MgCl2. After a reaction time of 30 min at 30° C., 35 μl of the reaction mixture was removed and spotted onto a filter paper and placed into warm 5% trichloroacetic acid (TCA). The TCA stops the kinase reaction, precipitates the proteins and polyE4Y onto the filter paper, and washes the un-reacted ATP and others away. After 3 TCA washes for 10 min each, the radioactivity remaining on the filter paper was determined by liquid scintillation counting. The assays were done in duplicates and repeated at least three times. Control reactions lacking polyE4Y were included for each enzyme concentration to correct for any non-polyE4Y specific phosphorylation. […] The inhibitory mechanism was determined based on the effect of the compound on the Km and Vm values Inhibitory constant (Ki) was determined by using Sigma Plot 8.0 Enzyme Kinetics Module.

Src [2] = target: T1, Src; assay: Radioactive kinase assay, polyE4Y phosphorylation by Src (peptides, N-heteroaromatics and conjugates); format: biochemical
[3] = read-out: IC50, inhibition of polyE4Y phosphorylation by Src

SMILES: CC[C@H](C)[C@H](NC(=O)[C@H](CCC(=O)O)NC(=O)[C@H](CCC(=O)O)NC(=O)[C@H](Cc1ccc(OP(=O)(O)O)cc1)NC(=O)CCC(=O)NCCCOCCOCCOCCCNS(=O)(=O)c1ccc(C(=O)OC[C@H]2O[C@@H](n3cnc4c(N)ncnc43)[C@H](O)[C@@H]2O)cc1)C(=O)O [Compound 9, 4-(sulfamoyl)benzoyladenosine-pYEEI]
IC50 (Src [1]): > 300 µM | enhancement of catalytic activity and phosphorylation (Src [1]; Src): at least 40%

SMILES: CC[C@H](C)[C@H](NC(=O)[C@H](CCC(=O)O)NC(=O)[C@H](CCC(=O)O)NC(=O)[C@H](Cc1ccc(OP(=O)(O)O)cc1)NC(=O)CCC(=O)NCCCOCCOCCOCCCN)C(=O)O [Compound 16, H2N-1,13-Trioxa-Suc-pTyr-Glu-Glu-Ile-OH]
Ki (Src [1]): 608 µM

IC50 (Src [2]; [3]): 570 µM
SMILES: CC[C@H](C)[C@H](NC(=O)[C@H](Cc1ccc(O)cc1)NC(C)=O)C(=O)N[C@@H](Cc1ccc(O)cc1)C(=O)NCC(=O)N[C@@H](CO)C(=O)N[C@@H](Cc1ccccc1)C(=O)N[C@@H](CCCCN)C(=O)O [Compound 41, Ac-YIYGSFK, reference compound] (Ac-YIYGSFK-OH; C-terminus assumed)

IC50 (Src [2]; [3]): 2.7 µM
SMILES: CC[C@H](C)[C@H](NC(=O)[C@H](Cc1ccc(O)cc1)NC(=O)Cn1nc(-c2ccccc2)c2c(N)ncnc21)C(=O)N[C@@H](Cc1ccc(O)cc1)C(=O)NCC(=O)N[C@@H](CO)C(=O)N[C@@H](Cc1ccccc1)C(=O)N[C@@H](CCCCN)C(=O)O [Compound 43] (X1-YIYGSFK-OH)

Src inhibitory potency in words (Src [2]; qualitative, relative to parent or comparator named in the text): not active
SMILES: CC[C@H](C)[C@H](NC(=O)[C@H](CS)NC(C)=O)C(=O)N[C@@H](Cc1ccc(O)cc1)C(=O)N[C@@H](CCCCN)C(=O)N[C@@H](Cc1ccc(O)cc1)C(=O)N[C@@H](Cc1ccc(N)cc1)C(=O)O [Compound 68, Ac-CIYKYF(NH2)] (Ac-CIYKY[Phe(4-NH2)]-OH)

SMILES: CC[C@H](C)[C@H](NC(=O)[C@H](CS)NC(C)=O)C(=O)N[C@@H](Cc1ccc(O)cc1)C(=O)N[C@@H](CCCCN)C(=O)N[C@@H](Cc1ccc(NS(C)(=O)=O)cc1)C(=O)N[C@@H](Cc1ccc(O)cc1)C(=O)O [Compound 80, Ac-CIYKF(4-NHSO2CH3)Y] (Ac-CIYK[X2]Y-OH)
IC50 (Src [2]): > 100 µM

IC50 (Src [2]; modified peptide analogs, read-out: IC50 (μM), Src kinase inhibitory potency (Table 1)): > 100 µM
SMILES: CC[C@H](C)[C@H](NC(=O)[C@@H](N)Cc1ccc(O)cc1)C(=O)N[C@@H](Cc1ccc(O)cc1)C(=O)NCC(=O)N[C@@H](CO)C(=O)N[C@@H](Cc1ccccc1)C(=O)N[C@@H](CCCCN)C(=O)O [Compound 85, YIYGSFK] (H-YIYGSFK-OH)
